Biological target: T1, LGC-50:MOD-1(327-458) (Caenorhabditis elegans, UniProt P41849)
T1 construct: Plasmid: KSM: lgc-50:mod-1(327-458) (cDNA); MOD-1 residues 327-458 (M3/4 loop); expressed in transfected cells; host or cells: Xenopus laevis oocytes injected with cRNA (plasmid pIH125)
T1 sequence (P41849 with tags, fused parts or gaps): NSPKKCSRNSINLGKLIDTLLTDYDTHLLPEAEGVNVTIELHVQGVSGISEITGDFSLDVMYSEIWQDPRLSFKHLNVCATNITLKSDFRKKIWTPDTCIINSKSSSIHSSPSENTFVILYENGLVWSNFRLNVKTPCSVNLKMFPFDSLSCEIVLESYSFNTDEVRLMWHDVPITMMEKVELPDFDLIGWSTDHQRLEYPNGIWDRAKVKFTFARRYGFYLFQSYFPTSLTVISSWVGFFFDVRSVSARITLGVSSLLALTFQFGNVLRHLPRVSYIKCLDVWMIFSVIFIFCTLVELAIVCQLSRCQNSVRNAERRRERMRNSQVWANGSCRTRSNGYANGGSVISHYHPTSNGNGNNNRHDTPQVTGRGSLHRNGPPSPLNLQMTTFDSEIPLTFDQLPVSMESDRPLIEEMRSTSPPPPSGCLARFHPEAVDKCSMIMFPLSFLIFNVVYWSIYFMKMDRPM
Assay: Two-electrode voltage clamp, 5-HT evoked dose response, LGC-50 chimera with MOD-1 M3/4 loop
Format: cell-based, C. elegans
Details: Xenopus oocytes, TEVC; LGC-50 with M3/4 loop of MOD-1
Experimental: To investigate, we exchanged the intracellular M3/4 loop of LGC-50 with the equivalent region of MOD-1 (LGC-50:MOD-1 327–458) and expressed the chimera in oocytes. […] The EC50 of the chimeric channels matched that of the recipient channel (Figures 5C and 5D).
Defolliculated Xenopus laevis oocytes were obtained from EcoCyte Bioscience (Dortmund, Germany) and maintained in ND96 (in mM: 96 NaCl, 1 MgCl2, 5 HEPES, 1.8 CaCl2, 2 KCl) solution at 16°C for 3-5 days.
5'-capped cRNA was synthesized in vitro using the T3 mMessage mMachine transcription kit according to manufacturer’s protocol (Thermo Fischer Scientific, CA, USA). […]
Two-electrode voltage clamp recordings were carried out using the Robocyte2 recording system or a manual TEVC set up, using an OC-725D amplifier (Multi Channel Systems, Reutlingen, Germany) and paired with a custom-made recording chamber and agar bridges from reference and bath electrodes. […] Data was recorded using WinWCP or RoboCyte2 control software, manual data was filtered at 10 Hz.
Dose response curves were calculated from the peak current during a 10 s agonist stimulation in ND96 solution, with a 60 s ND96 wash in between doses. […] Normalized dose response data was fitted to a nonlinear curve using a four parameters variable slope and the EC50 and Hill slope was calculated. […] Kinetic measurements were calculated from a 60 s agonist perfusion. […]

Compound `NCCc1c[nH]c2ccc(O)cc12` [5-HT, serotonin] has an EC50 of 850 nM.

From PMC8536830 (Current Biology, 2021)
